Like-named read-outs stand apart in the source and are kept apart here.
Assays:
viruses = conditions: higher pHs, e.g. 7-10; cited from earlier work
[1] = above pH 8, especially in the presence of dissolved iodides; Chang (1); cited from earlier work
[2] = Concentration of iodine species in water leaving the crystalline iodine generators; assay type: physicochemical; conditions: pH 6-8, flow about 200 ml/minute
Method: Artesian water is fed through inlet conduit 8 past shut-off valve 10 through preconditioner 12 at a flow rate of not less than 2 l. per minute and not more than about 50 l. per minute preferably on average about 10 l. per minute at a pH 6-8, […] Main flow water passes through conduit 14 where some of the main flow is diverted to iodine generator assembly 15 through conduit 16 at a flow rate of about 200 ml/minute. The rest of the main flow flows through flow restrictor disk 20 such that an absolute pressure drop of about 2 psi is generated across flow restrictor disk 20. Flow restrictor 20 governs the rate of flow of diverted main flow which ultimately reaches iodine generator assembly 15. The main flow now proceeds through flow switch 22, such that, at a pre-set flow rate exceeding 2 l per minute, the flow switch 22 generates an electrical impulse which is fed to dual action solenoid valve 24. Such an impulse is continuous and causes solenoid valve 24 to open and remain so, as long as the flow rate is maintained above 2 l per minute. The rest of the main flow continues through conduit 14 uninterrupted until iodine liquor is blended back into the main flow at iodine species liquor injection port 44. […]

bacteria = conditions: pHs 5-7; cited from earlier work
chickens [3] = assay: Safe consumption of residual iodine by chickens
chickens [4] = conditions: cited from earlier work
E. coli = conditions: cited from earlier work
[5] = crystalline iodine in water; cited from earlier work
[6] = tested on: E. coli fecal streptococci; conditions: cited from earlier work

For OI [HOI, hypoiodous acid], the virucidal action (viruses) is listed as “efficient virucide” and the “decomposition to iodide and iodate ions” value [1] is listed as “decomposes slowly”.

For II [iodine], the “concentration of iodine species concentrate” value ([2]; first iodine generator, about 20° C.) is given as 200-240 ppm, the “concentration of resultant (saturated) iodine liquor” value ([2]; second iodine generator, about 28° C.) is given as 280-320 ppm and the antibacterial action (bacteria) is given as “exhibits antibacterial action”. For the same molecule, the “concentration of residual iodine chickens could safely consume” value (chickens [3]) was “about 2 ppm”, the LD50 (chickens [4]) was “about 625 ppm” and the “% Kill” value (E. coli) was 99.99%. The “concentration by which E coli is effectively killed” value (E. coli) was 1-10 ppm, the “solubility in water versus temperature” value [5] was “directly proportional to the temperature of the water” and the “% Kill” value ([6]; Black et al., 1968, 18 C., contact time 1 min, 0.5 ppm I2) was 99.99%. The “% Kill” value ([6]; Ellis et al., 1989, 20 C., contact time 30 min, avg. 4 ppm I2) was 99.99%.

Source: patent publication US5919374A, “Method of disinfecting water with iodine species” (Iosolutions Incorporated, priority 1997, dated 1999)
